In US9802941B2, “Compounds and methods for inhibiting histone demethylases” (Gilead Sciences, Inc., priority 2014, dated 2017):
pIC50: −log10 of the molar value. Like-named read-outs stand apart in the source and are kept apart here.

Assays:
Type in all cases: biochemical
PHF8 (KDM7) = molecular target: T1, PHF8 (KDM7) (Homo sapiens, UniProt Q9UPP1); test: Histone lysine demethylase AlphaLISA assay, PHF8
T1 construct: KDM7 (PHF8); BRIC; 1-1322; Bac
Summary of the method: (§1)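 Compounds preincubated 10 min with each demethylase in Hepes buffer (pH 7.4-8.0) containing Tween-20, 0.1% BSA and 5 μM Fe(II); substrate then added, room-temperature reaction. Read-out by AlphaLISA acceptor and streptavidin donor beads after incubation in the dark.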

KDM4C (JMJD2C) = molecular target: T2, KDM4C (JMJD2C) (Homo sapiens, UniProt Q9H3R0); test: Histone lysine demethylase AlphaLISA assay, KDM4C
T2 construct: KDM4C; BRIC, Denmark; 1-349; E. coli; host or cells: E. coli
T2 sequence (Q9H3R0 1-349): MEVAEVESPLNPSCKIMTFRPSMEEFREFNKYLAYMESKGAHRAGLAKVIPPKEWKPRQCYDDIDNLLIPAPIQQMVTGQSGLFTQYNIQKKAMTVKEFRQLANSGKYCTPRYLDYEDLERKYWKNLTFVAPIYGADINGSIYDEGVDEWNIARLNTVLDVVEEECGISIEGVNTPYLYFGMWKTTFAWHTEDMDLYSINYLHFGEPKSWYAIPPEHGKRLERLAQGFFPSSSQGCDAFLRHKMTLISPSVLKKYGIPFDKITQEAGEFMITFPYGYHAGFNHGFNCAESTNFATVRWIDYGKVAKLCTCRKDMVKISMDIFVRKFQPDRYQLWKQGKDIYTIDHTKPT
Summary of the method: as §1

KDM2B (FBXL10) = molecular target: T3, KDM2B (FBXL10) (Homo sapiens, UniProt Q8NHM5); test: Histone lysine demethylase AlphaLISA assay, KDM2B
T3 construct: KDM2B; BPS,; 1-650; Bac; purchased BPS Bioscience, US; host or cells: baculovirus system
T3 sequence (Q8NHM5 1-650): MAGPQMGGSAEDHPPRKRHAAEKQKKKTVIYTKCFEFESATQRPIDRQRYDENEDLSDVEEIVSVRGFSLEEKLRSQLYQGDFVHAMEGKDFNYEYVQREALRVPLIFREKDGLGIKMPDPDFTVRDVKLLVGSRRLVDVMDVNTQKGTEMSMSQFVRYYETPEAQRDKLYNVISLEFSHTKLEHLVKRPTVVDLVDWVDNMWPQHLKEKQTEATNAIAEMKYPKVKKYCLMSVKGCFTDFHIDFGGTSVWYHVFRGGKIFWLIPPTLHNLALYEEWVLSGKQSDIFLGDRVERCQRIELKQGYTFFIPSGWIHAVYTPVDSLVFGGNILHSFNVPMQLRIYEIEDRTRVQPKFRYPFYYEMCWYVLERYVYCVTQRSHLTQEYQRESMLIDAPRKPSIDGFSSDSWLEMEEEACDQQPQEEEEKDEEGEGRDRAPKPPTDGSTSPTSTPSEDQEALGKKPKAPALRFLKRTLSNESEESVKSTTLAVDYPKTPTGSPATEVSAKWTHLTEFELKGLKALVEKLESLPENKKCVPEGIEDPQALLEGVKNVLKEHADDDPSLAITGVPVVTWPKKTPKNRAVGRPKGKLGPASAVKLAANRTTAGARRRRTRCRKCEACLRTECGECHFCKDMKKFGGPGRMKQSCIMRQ
Summary of the method: as §1

KDM5B (PLU-1) = molecular target: T4, KDM5B (PLU-1) (Homo sapiens, UniProt Q9UGL1); test: Histone lysine demethylase AlphaLISA assay, KDM5B
T4 construct: BRIC; 1-809; E. coli; host or cells: E. coli
T4 sequence (Q9UGL1 1-809): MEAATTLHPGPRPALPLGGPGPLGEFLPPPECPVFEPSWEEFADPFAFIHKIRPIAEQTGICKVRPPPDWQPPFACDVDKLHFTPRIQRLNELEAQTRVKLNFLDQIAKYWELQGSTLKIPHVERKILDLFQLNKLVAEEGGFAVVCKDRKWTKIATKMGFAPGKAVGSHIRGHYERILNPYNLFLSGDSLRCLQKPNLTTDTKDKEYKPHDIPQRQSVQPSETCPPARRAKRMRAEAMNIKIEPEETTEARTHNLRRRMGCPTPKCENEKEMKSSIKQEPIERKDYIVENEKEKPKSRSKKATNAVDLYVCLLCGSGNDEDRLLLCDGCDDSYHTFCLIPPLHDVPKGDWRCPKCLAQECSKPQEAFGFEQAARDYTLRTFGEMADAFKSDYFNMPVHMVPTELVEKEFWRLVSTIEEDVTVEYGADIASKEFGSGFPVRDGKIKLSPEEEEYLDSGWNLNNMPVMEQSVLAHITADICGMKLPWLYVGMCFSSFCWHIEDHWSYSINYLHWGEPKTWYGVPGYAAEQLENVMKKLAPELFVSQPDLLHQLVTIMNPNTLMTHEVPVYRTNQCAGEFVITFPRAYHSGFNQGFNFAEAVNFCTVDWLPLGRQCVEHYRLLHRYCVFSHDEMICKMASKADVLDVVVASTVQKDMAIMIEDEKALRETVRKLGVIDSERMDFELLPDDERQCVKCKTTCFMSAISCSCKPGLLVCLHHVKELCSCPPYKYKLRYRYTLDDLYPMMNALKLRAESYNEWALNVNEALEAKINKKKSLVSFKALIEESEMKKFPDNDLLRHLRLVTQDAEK
Summary of the method: as §1

[1] = AlphaLISA assay, read-out: HDME Inhibition PHF8 (IC50)
[2] = AlphaLISA, in vitro, read-out: HDME Inhibition PHF8
[3] = AlphaLISA assay, read-out: HDME Inhibition KDM4C (IC50)
[4] = AlphaLISA, in vitro, read-out: HDME Inhibition KDM4C
[5] = AlphaLISA assay, read-out: HDME Inhibition KDM2B (IC50)
[6] = AlphaLISA, in vitro, read-out: HDME Inhibition KDM2B
[7] = AlphaLISA assay, read-out: HDME Inhibition KDM5B (IC50)
[8] = AlphaLISA, in vitro, read-out: HDME Inhibition KDM5B

T1 sequence (Q9UPP1 37-440 limits assumed): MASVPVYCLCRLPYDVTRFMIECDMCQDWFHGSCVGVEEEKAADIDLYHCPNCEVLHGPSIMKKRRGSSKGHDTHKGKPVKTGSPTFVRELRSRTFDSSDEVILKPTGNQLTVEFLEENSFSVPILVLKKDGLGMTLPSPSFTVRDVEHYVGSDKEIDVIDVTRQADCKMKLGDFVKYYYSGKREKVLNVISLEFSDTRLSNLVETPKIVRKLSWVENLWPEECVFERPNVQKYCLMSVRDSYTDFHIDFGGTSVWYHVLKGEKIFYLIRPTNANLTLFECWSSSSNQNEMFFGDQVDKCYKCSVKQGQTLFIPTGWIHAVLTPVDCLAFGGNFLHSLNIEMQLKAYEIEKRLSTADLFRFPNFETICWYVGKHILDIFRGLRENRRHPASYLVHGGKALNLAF

| pIC50 (PHF8 (KDM7); [1]) | pIC50 (PHF8 (KDM7); [2]) | pIC50 (KDM4C (JMJD2C); [3]) | pIC50 (KDM4C (JMJD2C); [4]) | pIC50 (KDM2B (FBXL10); [5]) | pIC50 (KDM2B (FBXL10); [6]) | pIC50 (KDM5B (PLU-1); [7]) | pIC50 (KDM5B (PLU-1); [8]) | pIC50 (KDM5B (PLU-1)) | SMILES |
| --- | --- | --- | --- | --- | --- | --- | --- | --- | --- |
| < 5.00 | < 5.00 | < 5.00 | < 5.00 | < 5.00 | < 5.00 | < 5.00 | < 5.00 |  | CC(C)C[C@@H](CO)NCc1cc(C(=O)O)cc(CO)n1 [Compound 79, 2-({[(2S)-1-hydroxy-4-methylpentan-2-yl]amino}methyl)-6-(hydroxymethyl)pyridine-4-carboxylic acid] |
|  | 5.98 | < 5.00 | < 5.00 |  | 6.16 | < 5.00 | < 5.00 |  | Cc1cc(C(=O)O)cc(CNCc2ncc(CN(C)C)n2Cc2ccc(F)cc2)n1 [Compound 50, 2-{[({5-[(dimethylamino)methyl]-1-[(4-fluorophenyl)methyl]-1H-imidazol-2-yl}methyl)amino]methyl}-6-methylpyridine-4-carboxylic acid] |
|  | 5.94 | < 5.00 | < 5.00 |  | 6.50 | < 5.00 | < 5.00 |  | Cc1cc(C(=O)O)cc(CNCc2ncc(CCC(N)=O)n2Cc2ccc(F)cc2)n1 [Compound 114, 2-[({[5-(2-carbamoylethyl)-1-[(4-fluorophenyl)methyl]-1H-imidazol-2-yl]methyl}amino)methyl]-6-methylpyridine-4-carboxylic acid] |
|  | 5.74 | < 5.00 | < 5.00 |  | 7.21 | < 5.00 | < 5.00 |  | CC#CCC(c1ccc(F)cc1)n1ccnc1CNCc1cc(C(=O)O)cc(C)n1 (stereo not drawn) [Compound 96, 2-{[({1-[1-(4-fluorophenyl)pent-3-yn-1-yl]-1H-imidazol-2-yl}methyl)amino]methyl}-6-methylpyridine-4-carboxylic acid] |
|  | 6.31 | < 5.00 | < 5.00 |  | 6.30 | < 5.00 | < 5.00 |  | Cc1cc(C(=O)O)cc(CNCc2nnc(C3CCC3)n2Cc2ccc(F)cc2)n1 [Compound 45, 2-{[({5-cyclobutyl-4-[(4-fluorophenyl)methyl]-4H-1,2,4-triazol-3-yl}methyl)amino]methyl}-6-methylpyridine-4-carboxylic acid] |
|  | 6.51 |  | 5.13 |  | 6.61 |  |  | 6.64 | O=C(O)c1cc(CO)nc(CNCc2nncn2Cc2ccc(F)cc2)c1 [Compound 62, 2-{[({4-[(4-fluorophenyl)methyl]-4H-1,2,4-triazol-3-yl}methyl)amino]methyl}-6-(hydroxymethyl)pyridine-4-carboxylic acid] |
|  | 5.90 |  | 5.46 |  | 6.23 |  |  | 6.61 | O=C(O)c1cc(CO)nc(CNCc2nc(CO)cn2Cc2ccc(F)cc2)c1 [Compound 88, 2-{[({1-[(4-fluorophenyl)methyl]-4-(hydroxymethyl)-1H-imidazol-2-yl}methyl}amino]methyl}-6-(hydroxymethyl)pyridine-4-carboxylic acid] |
|  | 5.93 | < 5.00 | < 5.00 |  | 5.94 | < 5.00 | < 5.00 |  | CCc1cnc(CNCc2cc(C(=O)O)cc(C)n2)n1CCc1ccccc1 [Compound 54, 2-[({[5-ethyl-1-(2-phenylethyl)-1H-imidazol-2-yl]methyl}amino)methyl]-6-methylpyridine-4-carboxylic acid] |
|  | 6.06 | < 5.00 | < 5.00 |  | 6.88 | < 5.00 | < 5.00 |  | CCc1cnc(CNCc2cc(C(=O)O)cc(C)n2)n1CCCc1ccccc1 [Compound 108, 2-[({[5-ethyl-1-(3-phenylpropyl)-1H-imidazol-2-yl]methyl}amino)methyl]-6-methylpyridine-4-carboxylic acid] |
|  | 5.89 | < 5.00 | < 5.00 |  | 6.18 |  |  | 5.75 | O=C(O)c1cc(CO)nc(CNCc2nncn2CCc2cc(Cl)cc(Cl)c2)c1 [Compound 55, 2-{[({4-[2-(3,5-dichlorophenyl)ethyl]-4H-1,2,4-triazol-3-yl}methyl)amino]methyl}-6-(hydroxymethyl)pyridine-4-carboxylic acid] |
|  | 5.78 | < 5.00 | < 5.00 |  | 6.60 | < 5.00 | < 5.00 |  | CCCc1nnc(CNCc2cc(C(=O)O)cc(CO)n2)n1Cc1ccc(F)cc1 [Compound 73, 2-{[({4-[(4-fluorophenyl)methyl]-5-propyl-4H-1,2,4-triazol-3-yl}methyl)amino]methyl}-6-(hydroxymethyl)pyridine-4-carboxylic acid] |
|  | 6.00 | < 5.00 | < 5.00 |  | 7.47 |  |  | 6.82 | Cc1nnc(CNCc2cc(C(=O)O)cc(CO)n2)n1CCCc1ccccc1 [Compound 65, 2-(hydroxymethyl)-6-[({[5-methyl-4-(3-phenylpropyl)-4H-1,2,4-triazol-3-yl]methyl}amino)methyl]pyridine-4-carboxylic acid] |
| < 5.00 | < 5.00 | < 5.00 | < 5.00 | < 5.00 | < 5.00 | < 5.00 | < 5.00 |  | COc1ccc(O)c(CCNCc2cc(C(=O)O)cc(CO)n2)n1 [Compound 109, 2-({[2-(3-hydroxy-6-methoxypyridin-2-yl)ethyl]amino}methyl)-6-(hydroxymethyl)pyridine-4-carboxylic acid] |
| < 5.00 | < 5.00 | < 5.00 | < 5.00 |  | 5.24 |  | 6.03 |  | O=C(O)c1cc(CO)nc(CNCCc2nncn2Cc2ccc(C(F)(F)F)cc2)c1 [Compound 66, 2-(hydroxymethyl)-6-({[2-(4-{[4-(trifluoromethyl)phenyl]methyl}-4H-1,2,4-triazol-3-yl)ethyl]amino}methyl)pyridine-4-carboxylic acid] |
|  | 5.88 | < 5.00 | < 5.00 |  | 6.98 |  | 5.21 |  | CCOc1ccc(CC(C)C)c(CNCc2cc(C(=O)O)cc(CO)n2)n1 [Compound 101, 2-[({[6-ethoxy-3-(2-methylpropyl)pyridin-2-yl]methyl}amino)methyl]-6-(hydroxymethyl)pyridine-4-carboxylic acid] |
